In brackets after ≈: the same amount, converted by molar mass. Entries after “also recorded” stand apart in the source; their conditions may differ. Like-named read-outs stand apart in the source and are kept apart here.
Columns and labels:
[1] = system: HT-29 human colon adenocarcinoma cells; test: Antiproliferative assay (MTT); format: cell-based; conditions: for IC50: Homo sapiens, HT-29, 24-h exposure, 10% FBS-supplemented RPMI 1640, MTT; for Selectivity ratio: IC50 (HT-29) / MIC against S. aureus
Description: As celecoxib has been reported to be cytotoxic to cancer cells, the growth inhibitory activities of celecoxib and selected derivatives were assessed in. HT-29 human colon adenocarcinoma cells after 24-h exposure in 10% FBS-supplemented RPMI 1640 medium.
Antiproliferative assay. The cytotoxicity of individual test agents in HT-29 human colon adenocarcinoma cells was evaluated by using the 3-(4,5-dimethylthiazol-2-yl)-2,5-diphenyltetrazolium (MTT) assay. Briefly, HT-29 cells were seeded into 96-well plates at 1×10^4 cells/well (with a minimum of 6 wells per test condition) in RPMI 1640 medium supplemented with 10% FBS and 10 μg/ml of gentamicin. After overnight incubation at 37° C. under 5% CO2, the medium from each well was removed and replenished with fresh aliquots of the same medium containing various concentrations of test agents dissolved in DMSO (final concentration, 0.1%). Control cells were treated with DMSO alone at a concentration equal to that in drug-treated cells. After 24 h of drug exposure, the medium was removed and replaced by 100 μl of 0.5 mg/ml MTT in 10% FBS-containing medium, and the cells were incubated in the CO2 incubator at 37° C. for 2 h. Subsequently, medium was removed from each well, and the reduced MTT dye was dissolved with 100 μl of DMSO per well. Absorbance at 570 nm was measured with a plate reader. The 50% inhibitory concentration (IC50) of each drug was determined from dose-response curves by using CalcuSyn software (Biosoft, Cambridge, United Kingdom).

S. aureus = test: CFU of S. aureus after exposure to celecoxib at the MIC; format: cell-based; conditions: at the MIC of 32 μg/ml, after 24 h
Description: The inventors examined the suppressive effect of celecoxib on the growth of S. aureus (ATCC 29213), S. epidermidis (ATCC 35984), and two different strains of MRSA (ATCC 33592 and SCCmec VT), as shown in Table IX.

[2] = system: S. epidermidis (ATCC 35984); test: MIC, broth microdilution; format: cell-based; conditions: Staphylococcus epidermidis
S. aureus (ATCC 29213) = test: MIC, broth microdilution; format: cell-based; conditions: Staphylococcus aureus
three strains of MRSA = test: MIC, text statements on the three strains of MRSA together; format: cell-based, methicillin-resistant Staphylococcus aureus; conditions: Staphylococcus aureus, read-out: MIC against MRSA
Description: Antibacterial assays. The MIC of each agent was determined following the guidelines for the broth microdilution method recommended by the Clinical and Laboratory Standards Institute. Wikler, M. A. Performance Standards for Antimicrobial Susceptibility Testing; Eighteenth Informational Supplement Clinical and Laboratory Standards Institute: 2008. Briefly, bacteria grown overnight on Luria Bertani (LB) agar plates were suspended in phosphate-buffered saline (PBS) to an O.D. of 1.0 at 600 nm, which was equivalent to 2×10^9 CFU/ml, and then diluted in CAMHB to a final concentration of 5×10^5 CFU/ml. […] The MIC of each agent was defined as the lowest concentration at which no growth of bacteria was observed.

MRSA (ATCC 33592) = test: MIC, broth microdilution; format: cell-based, methicillin-resistant Staphylococcus aureus; conditions: Staphylococcus aureus; read-out: MIC MRSA (ATCC 33592)
MRSA ATCC 33592 = test: Time-kill assay; format: cell-based, methicillin-resistant Staphylococcus aureus; conditions: for reduction in CFU: after 24-h exposure to 8 times the MIC, CAMHB
Description: Numbers of viable bacteria in the broth after each exposure period were enumerated by CFU assay, and the results expressed as CFU/ml. Points indicate means, and bars indicate SD (n=3). The dashed line represents 99.9% cell killing. Ctl, control.
Otherwise, it is considered bacteriostatic. Pankey, G. A.; Sabath, L. D. Clin. Infect. Dis., 38, 864-870 (2004). To category these novel agents, represented by compounds 9, 36, and 46, in this regard, their time-killing kinetics were assessed in MRSA ATCC 33592 over a 24-h treatment period. Overnight-grown bacteria were inoculated in cation-adjusted Muller Hinton broth (CAMHB) at a concentration of 5×10^5 CFU/ml followed by exposure to individual compounds at 2- to 8-fold their respective MIC values. […] Accordingly, compounds 36 and 46 were classified as bactericidal. As the killing was time-dependent, the antibacterial effect of these agents was not caused by the disruption of membrane integrity.
Time-kill assay. To analyze the kinetics of bacterial cell killing, MRSA ATCC 33592 cells at a density of 5×10^5 CFU/ml were treated with test agents at 2-, 4-, and 8-fold MICs in triplicate in 24-well plates. Bacterial survival in medium containing DMSO at a concentration equal to that used for drug-treated bacteria served as control. At different times after the start of drug exposure, a 100 μl aliquot of the bacterial suspension was taken from each well and serially diluted with PBS. The diluted samples were spread onto LB agar plates followed by incubation at 37° C. for 16 h. The bacterial colonies on each plate were enumerated, and the number of viable bacteria in each well was expressed as CFU per milliliter.

MRSA (SCCmec VT) = test: MIC, broth microdilution; format: cell-based, methicillin-resistant Staphylococcus aureus
[3] = system: S. lugdunesis (NTUH isolate); test: MIC, broth microdilution; format: cell-based; conditions: read-out: MIC S. lugdunesis (NTUH isolate)
MRSA (ATCC 49476) = test: MIC, broth microdilution; format: cell-based, methicillin-resistant Staphylococcus aureus; conditions: Staphylococcus aureus
S. aureus (ATCC 12598) = test: MIC, broth microdilution; format: cell-based; conditions: Staphylococcus aureus, ATCC12598
[4] = system: S. epidermidis (ATCC 12228); test: MIC, broth microdilution; format: cell-based; conditions: Staphylococcus epidermidis, ATCC12228
MRSA 33592 = test: Survival of MRSA-infected mice; format: in vivo, C57BL/6 mice; conditions: once, 1 h postinfection, 5×10^7 CFU i.p.
Description: (A) Effect of intraperitoneal administration of Cpd-36 and Cpd-46 on survival of methicillin-resistant Staphylococcus aureus-infected mice. C57BL/6 mice were inoculated intraperitoneally with 5×10^7 CFU of MRSA 33592. At 1 h postinfection, mice were treated intraperitoneally once with vehicle, Cpd-36 or Cpd-46 at 30 mg/kg (B) Effect of oral administration of Cpd-46 on survival of MRSA 33592-infected mice. One hour after intraperitoneal inoculation with 5×10^7 CFU of MRSA 33592, C57BL/6 mice were treated orally once with Cpd-46 at 100 mg/kg or vehicle. Survival data are presented as Kaplan-Meier survival curves for each treatment group (n=5). The difference in the mean survival times of the groups was statistically significant at P values of 0.05.

S. hominis (ATCC 27844) = test: MIC, broth microdilution; format: cell-based; conditions: Staphylococcus hominis, ATCC27844
[5] = system: S. haemolyticus (ATCC 29970); test: MIC, broth microdilution; format: cell-based; conditions: Staphylococcus haemolyticus, ATCC29970
[6] = system: S. saprophyticus (ATCC 15305); test: MIC, broth microdilution; format: cell-based; conditions: Staphylococcus saprophyticus, ATCC15305
[7] = ATCC35984, 24 h, CAMHB, 24 h, 37° C., read-out: MIC S. epidermidis (ATCC 35984)
[8] = ATCC29213, 24 h, CAMHB, 24 h, 37° C., read-out: MIC S. aureus (ATCC 29213)
[9] = Table XIII, S. aureus (SSCmecVT)
[10] = Staphylococcus aureus, MRSA, read-out: MIC MRSA (SCCmec VT)

SMILES	IC50 [1] [µg/mL]	MIC (MRSA (ATCC 33592)) [µg/mL]	MIC [2, 7] [µg/mL]	MIC (S. aureus (ATCC 29213); [8]) [µg/mL]	reduction in CFU (MRSA ATCC 33592) [%]	MIC (MRSA (ATCC 49476)) [µg/mL]	MIC (MRSA (SCCmec VT); [10]) [µg/mL]	MIC (S. aureus (ATCC 12598)) [µg/mL]	MIC [4] [µg/mL]	other results
Cc1ccc(-c2cc(C(F)(F)F)nn2-c2ccc(S(N)(=O)=O)cc2)cc1 [Celecoxib, celecoxib]	18 (≈ 47.2 µM)	–	–	–	–	–	–	–	–	decrease in CFU relative to control (S. aureus): 6 log; MIC ([2]; ATCC35984, Table IX, S. epidermidis (ATCC 35984), read-out: MIC): 16 µg/mL (≈ 42 µM); MIC (S. aureus (ATCC 29213); ATCC29213, Table IX, S. aureus (ATCC 29213), read-out: MIC): 32 µg/mL (≈ 83.9 µM)
NC(=O)c1ccc(-n2nc(C(F)(F)F)cc2-c2c3ccccc3cc3ccccc23)cc1 [Compound 9, 4-(5-Anthracen-9-yl-3-trifluoromethyl-pyrazol-1-yl)-benzamide]	12 (≈ 27.8 µM)	2 (≈ 4.64 µM)	≤ 2	≤ 2	99.14	–	–	–	–	MIC (three strains of MRSA): 0.5 to 2 µg/mL (≈ 1.16 to 4.64 µM); dose-dependent effect on cell killing (MRSA ATCC 33592; range of 2×-8×MIC): did not show a dose-dependent effect
NS(=O)(=O)Nc1ccc(-n2nc(C(F)(F)F)cc2-c2ccc3c(ccc4ccccc43)c2)cc1 [Compound 36, N-[4-(5-Phenanthren-2-yl-3-trifluoromethyl-pyrazol-1-yl)-phenyl]-aminosulfonamide]	12 (≈ 24.9 µM)	–	≤ 2	≤ 2	99.91	–	–	–	–	MIC (MRSA (SCCmec VT); [9]): 1 µg/mL (≈ 2.07 µM); Selectivity ratio [1]: 12; MIC [3]: 2 µg/mL (≈ 4.15 µM)
Cc1ccc(-c2cc(C(F)(F)F)nn2-c2ccc(NS(N)(=O)=O)cc2)cc1 [Compound 41, N-[4-(5-p-Tolyl-3-trifluoromethyl-pyrazol-1-yl)-phenyl]-aminosulfonamide]	28 (≈ 70.6 µM)	4 (≈ 10.1 µM)	4 (≈ 10.1 µM)	4 (≈ 10.1 µM)	–	4 (≈ 10.1 µM)	4 (≈ 10.1 µM)	4 (≈ 10.1 µM)	4 (≈ 10.1 µM)	–
Cc1ccc(-c2ccc(-c3cc(C(F)(F)F)nn3-c3ccc(NS(N)(=O)=O)cc3)cc2)cc1 [Compound 43, N-{4-[5-(4′-Methylbiphenyl-4-yl)-3-trifluoromethyl-pyrazol-1-yl]-phenyl}-aminosulfonamide]	9 (≈ 19 µM)	1 (≈ 2.12 µM)	–	1 (≈ 2.12 µM)	–	1 (≈ 2.12 µM)	1 (≈ 2.12 µM)	1 (≈ 2.12 µM)	1 (≈ 2.12 µM)	–
NS(=O)(=O)Nc1ccc(-n2nc(C(F)(F)F)cc2-c2ccc(-c3ccc(Br)cc3)cc2)cc1 [Compound 44, N-{4-[5-(4′-Bromobiphenyl-4-yl)-3-trifluoromethyl-pyrazol-1-yl]-phenyl}-aminosulfonamide]	10 (≈ 18.6 µM)	1 (≈ 1.86 µM)	–	1 (≈ 1.86 µM)	–	1 (≈ 1.86 µM)	1 (≈ 1.86 µM)	1 (≈ 1.86 µM)	1 (≈ 1.86 µM)	–
NS(=O)(=O)Nc1ccc(-n2nc(C(F)(F)F)cc2-c2c3ccccc3cc3ccccc23)cc1 [Compound 46, N-[4-(5-Anthracen-9-yl-3-trifluoromethyl-pyrazol-1-yl)-phenyl]-aminosulfonamide]	20 (≈ 41.5 µM)	–	–	–	99.99	–	–	–	–	MIC (MRSA (SCCmec VT); [9]): 0.5 µg/mL (≈ 1.04 µM); survival of MRSA-infected mice (MRSA 33592; intraperitoneal, 30 mg/kg): improve the survival; survival of MRSA-infected mice (MRSA 33592; oral, 100 mg/kg): improve the survival; Selectivity ratio [1]: 40; classification bactericidal / bacteriostatic (MRSA ATCC 33592; bactericidal = 99.9% reduction in inoculum within 24 h): bactericidal; also recorded: bacteriostatic
NS(=O)(=O)Nc1ccc(-n2nc(C(F)(F)F)cc2-c2ccc3cc4ccccc4cc3c2)cc1 [Compound 47, N-[4-(5-Anthracen-2-yl-3-trifluoromethyl-pyrazol-1-yl)-phenyl]-aminosulfonamide]	11 (≈ 22.8 µM)	2 (≈ 4.15 µM)	–	–	–	2 (≈ 4.15 µM)	2 (≈ 4.15 µM)	–	2 (≈ 4.15 µM)	MIC (S. hominis (ATCC 27844)): 2 µg/mL (≈ 4.15 µM); MIC [5]: 16 µg/mL (≈ 33.2 µM); MIC [6]: 8 µg/mL (≈ 16.6 µM)
